Experimental data taken from patent US20070010399A1, “Crop plant-compatible herbicidal compositions comprising herbicides and safeners” (priority 2005, published 2007).
Like-named read-outs stand apart in the source and are kept apart here.

Key:
Assay type in all cases: in vivo
[1] = test system: corn
Protocol: Seeds of monocotyledonous and dicotyledonous weed and crop plants are placed into sandy loam in wood fiber pots or in plastic pots, covered with soil and cultivated in a greenhouse, including during the vegetation period outdoors outside of the greenhouse, under good growth conditions. 2-3 weeks after sowing, the test plants are treated at the one- to three-leaf stage. The herbicidal compositions according to the invention, formulated as wettable powders (WP) or liquid (EC) are, in various dosages with a water application rate of 300 l/ha (converted), with added wetting agent (0.2 to 0.3%), sprayed onto the plants and the surface of the soil. 3 to 4 weeks after the treatment of the test plants, the effect of the preparations is rated visually in comparison to untreated controls.
The abbreviation “a.i.” means active ingredient.

[2] = test system: corn; assay: Herbicidal pre-emergence action: damage to corn
Description: Seeds of monocotyledonous and dicotyledonous weed and crop plants are placed into sandy loam in cardboard pots and covered with soil. The herbicidal compositions according to the invention, formulated in the form of wettable powders or emulsion concentrates, are then applied as an aqueous suspension or emulsion with a water application rate of 600 to 800 l/ha (converted) in different dosages to the surface of the covering soil. After the treatment, the pots are placed in a greenhouse and kept under good growth conditions for the weeds. Optical scoring of the damage to the plants or the emergence damage is carried out after emergence of the test plants after a test period of 3 to 4 weeks, by comparison with untreated controls.
(§1) The herbicidal activity or damage is in each case stated in percent: 100% activity=the plants have died, 0% activity=like untreated control plants. The abbreviation “a.i.” means active ingredient.

[3] = test system: corn; conditions: seed treatment, post-emergence; reduction of corn damage by seed dressing with A3 0.5 g/kg; printed in the line of the herbicide alone
[4] = test system: corn; assay: Treatment of corn seed with safener, herbicide pre-emergence; conditions: reduction of corn damage by seed dressing with A3 0.5 g/kg, printed in the line of the herbicide alone
Protocol: Corn seed is treated (dressed) with various amounts of a safener and then placed-in sandy loam and covered with soil. The herbicides, formulated as emulsifiable concentrates or dust, are applied using a water application rate of 300 to 800 l/ha (converted) at various dosages to the surface of the covering soil. The optical scoring of the damage to the useful plants is carried out 3 to 5 weeks after the treatment.
as §1
In Tables 3 and 4, the dosage of the herbicide (component B) is stated in gram per hectare and that of the safener (component A) is stated in gram per kilogram of seed.

[5] = post-emergence, reduction of corn damage by adding safener A3 to the herbicide, printed in the line of the herbicide alone, spans both lines
[6] = pre-emergence, reduction of corn damage by adding safener A3 to the herbicide, printed in the line of the herbicide alone, spans both lines

`CS(=O)(=O)c1ccc(C(=O)C2C(=O)CCCC2=O)c(Cl)c1` [Component B2.1, sulcotrione] was tested, and the “Damage reduced by” value [1, 5] was 77%.
With `CCOc1nc(F)cc2nc(S(=O)(=O)Nc3c(Cl)cccc3C(=O)OC)nn12` [Component B1.11, cloransulam-methyl] the “Damage reduced by” value ([2]; in vivo) was 43% and the “Damage reduced by” value ([1]; in vivo) was 50%.
With `COc1nn(C(=O)NS(=O)(=O)c2ccccc2OC(F)(F)F)c(=O)n1C` [Component B1.1, flucarbazone] the “Damage reduced by” value [2, 6] was 78%, the “Damage reduced by” value [1, 5] was 70% and the “Damage reduced by” value [3] was 80%.
`Cc1c(C(=O)c2cnn(C)c2O)ccc(S(C)(=O)=O)c1C1=NOCC1` [Component B2.4, topramezone] was tested, and the “Damage reduced by” value [1, 5] was 64%.
`Cc1cnc(C2=NC(=O)C(C)(C(C)C)N2)c(C(=O)O)c1` (stereo not drawn) [Component B1.19, imazapic] was tested, and the “Damage reduced by” value ([1]; in vivo) was 33%.
With `COc1cc(Cl)nc(NC(=O)NS(=O)(=O)c2ccccc2C(=O)O)n1` [Component B1.12, chlorimuron] the “Damage reduced by” value [1, 5] was 86% and the “Damage reduced by” value [3] was 71%.
With `Cc1ccn2nc(S(=O)(=O)Nc3c(F)cccc3F)nc2n1` [Component B1.16, flumetsulam] the “Damage reduced by” value ([2]; in vivo) was 57% and the “Damage reduced by” value ([1]; in vivo) was 43%.
`COc1nc(C)nc(NC(=O)NS(=O)(=O)c2ccccc2CCC(F)(F)F)n1` [Component B1.8, prosulfuron] was tested, and the “Damage reduced by” value ([2]; in vivo) was 67%.
With `CCS(=O)(=O)c1cccnc1S(=O)(=O)NC(=O)Nc1nc(OC)cc(OC)n1` [Component B1.36, rimsulfuron] the “Damage reduced by” value ([1]; in vivo) was 100%.
`CS(=O)(=O)c1ccc(C(=O)C2C(=O)CCCC2=O)c([N+](=O)[O-])c1` [Component B2.3, mesotrione] was tested, and the “Damage reduced by” value [1, 5] was 83%.
With `COc1cc(OC)nc(NC(=O)NS(=O)(=O)c2cc(CNS(C)(=O)=O)ccc2C(=O)O)n1` [Component B1.22, mesosulfuron] the “Damage reduced by” value [2, 6] was 56%.
`CCCOc1nn(C(=O)[N-]S(=O)(=O)c2ccccc2C(=O)OC)c(=O)n1C.[Na+]` [Component B1.23, propoxycarbazone] was tested, and the “Damage reduced by” value [3] was 68%.
`CCCN(CCC)C(=O)SCC` [Component B4.1, EPTC] was tested, and the “Damage reduced by” value [1, 5] was 62%.
In the case of `COc1cc(OC)nc(NC(=O)NS(=O)(=O)c2c(C(=O)O)cnn2C)n1` [Component B1.32, pyrazosulfuron], the “Damage reduced by” value [2, 6] is reported as 38%.
For `CCc1cccc(C)c1N(C(=O)CCl)[C@@H](C)COC` [Component B5.2, S-metolachlor], the “Damage reduced by” value [2, 6] was 78%.
`COc1nc(C)nc(=NC(=O)NS(=O)(=O)c2ccccc2C(=O)O)[nH]1` [Component B1.5, metsulfuron] was tested, and the “Damage reduced by” value [1, 5] was 80% and the “Damage reduced by” value [3] was 80%.
`COc1cc(OC)nc(NC(=O)NS(=O)(=O)c2cc(NC=O)ccc2C(=O)N(C)C)n1` [Component B1.2, foramsulfuron] was tested, and the “Damage reduced by” value ([1]; in vivo) was 100%.
`COc1cc(OC)n2nc(S(=O)(=O)Nc3c(Cl)ccc(C)c3Cl)nc2n1` [Component B1.4, metosulam] was tested, and the “Damage reduced by” value ([2]; in vivo) was 33%.
In the case of `COc1nc(C)nc(NC(=O)NS(=O)(=O)c2ccccc2OCCCl)n1` [Component B1.28, triasulfuron], the “Damage reduced by” value ([2]; in vivo) is reported as 71%.
For `CCc1cnc(C2=NC(C)(C(C)C)C(=O)N2)c(C(=O)O)c1` (stereo not drawn) [Component B1.21, imazethapyr], the “Damage reduced by” value ([1]; in vivo) was 71%.
For `COc1nc(C)nc(NC(=O)NS(=O)(=O)c2ccsc2C(=O)O)n1` [Component B1.9, thifensulfuron], the “Damage reduced by” value [2, 6] was 100%.
With `COc1cc(OC)nc(NC(=O)NS(=O)(=O)c2c(C(=O)O)c(Cl)nn2C)n1` [Component B1.17, halosulfuron] the “Damage reduced by” value ([1]; in vivo) was 100%.
For `CCOc1ccccc1OS(=O)(=O)NC(=O)Nc1nc(OC)cc(OC)n1` [Component B1.13, ethoxysulfuron], the “Damage reduced by” value ([2]; in vivo) was 50% and the “Damage reduced by” value ([1]; in vivo) was 50%.
In the case of `COc1nc(C)nc(NC(=O)NS(=O)(=O)c2cc(I)ccc2C(=O)O)n1` [Component B1.3, iodosulfuron], the “Damage reduced by” value ([2]; in vivo) is reported as 69%.
In the case of `CSc1nnc(C(C)(C)C)c(=O)n1N` [Component B3.1, metribuzin], the “Damage reduced by” value [2, 6] is reported as 50%.
For `COc1cc(OC)nc(NC(=O)NS(=O)(=O)c2nc(C(F)(F)F)ccc2C(=O)O)n1` [Component B1.31, flupyrsulfuron], the “Damage reduced by” value [1, 5] was 75% and the “Damage reduced by” value [3] was 75%.
With `COc1nc(C)nc(N(C)C(=O)NS(=O)(=O)c2ccccc2C(=O)O)n1` [Component B1.10, tribenuron] the “Damage reduced by” value [2, 6] was 50% and the “Damage reduced by” value [4] was 60%.
With `COCc1cnc(C2=NC(C)(C(C)C)C(=O)N2)c(C(=O)O)c1` (stereo not drawn) [Component B1.18, imazamox] the “Damage reduced by” value [1, 5] was 40%.
For `COc1nc(C)nc(NC(=O)NS(=O)(=O)c2ccccc2Cl)n1` [Component B1.26, chlorsulfuron], the “Damage reduced by” value ([1]; in vivo) was 86%.
With `COc1cc(OC)nc(NC(=O)NS(=O)(=O)N(C)S(C)(=O)=O)n1` [Component B1.25, amidosulfuron] the “Damage reduced by” value ([1]; in vivo) was 80%.
With `COc1c(Cl)ccc(Cl)c1C(=O)O` [Component B7.1, dicamba] the “Damage reduced by” value ([1]; in vivo) was 100%.
With `COc1cc(OC)nc(NC(=O)NS(=O)(=O)c2ncccc2C(=O)N(C)C)n1` [Component B1.6, nicosulfuron] the “Damage reduced by” value [2, 6] was 67%.
With `CCC(CC)Nc1c([N+](=O)[O-])cc(C)c(C)c1[N+](=O)[O-]` [Component B10.1, pendimethalin] the “Damage reduced by” value [2, 6] was 54%.
